Key:
[1] = biological target: Cytochrome P450 2C19 (Homo sapiens, UniProt P33261); experiment: Inhibition of CYP2C19 (unknown origin) preincubated with compound for 5 mins followed by NADPH addition and measured after 45 mins by LC-MS/MS analysis; type: ADME
[2] = biological target: T1, Cytochrome P450 1A2 (Homo sapiens, UniProt P05177); experiment: Inhibition of CYP1A2 (unknown origin) preincubated with compound for 5 mins followed by NADPH addition and measured after 5 mins by LC-MS/MS analysis; type: ADME
T1 sequence (P05177 whole entry): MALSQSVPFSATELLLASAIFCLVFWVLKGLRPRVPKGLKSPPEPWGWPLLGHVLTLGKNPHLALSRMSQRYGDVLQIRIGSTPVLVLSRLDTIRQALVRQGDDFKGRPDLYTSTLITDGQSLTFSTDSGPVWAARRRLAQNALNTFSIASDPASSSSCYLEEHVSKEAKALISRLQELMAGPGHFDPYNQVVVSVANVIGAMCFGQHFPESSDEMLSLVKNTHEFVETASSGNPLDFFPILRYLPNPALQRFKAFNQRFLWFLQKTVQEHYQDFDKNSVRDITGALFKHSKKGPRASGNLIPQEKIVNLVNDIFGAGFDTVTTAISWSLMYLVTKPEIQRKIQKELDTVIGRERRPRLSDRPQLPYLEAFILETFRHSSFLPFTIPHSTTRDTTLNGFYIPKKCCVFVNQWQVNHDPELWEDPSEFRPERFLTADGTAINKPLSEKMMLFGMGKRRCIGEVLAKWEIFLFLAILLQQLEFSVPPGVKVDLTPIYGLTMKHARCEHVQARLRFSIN

[3] = Drug distribution in SCID mouse plasma at 3 mg/kg, po measured at 6 hrs by LC-MS/MS analysis; type: ADME, organism-based
[4] = Drug distribution in SCID mouse liver at 3 mg/kg, po measured at 24 hrs by LC-MS/MS analysis; type: ADME, organism-based; conditions: read-out: Ct
[5] = Metabolic stability in human liver microsome assessed as half life measured upto 60 mins in presence of NADPH by LC-MS/MS analysis; type: ADME; conditions: liver microsomes
[6] = biological target: Protein cereblon/Histone lysine acetyltransferase CREBBP (Rattus norvegicus, UniProt Q56AP7+Q6JHU9); experiment: PROTAC activity at CBP/CRBN in rat RG2 cells assessed as induction of CBP degradation; type: cell-based
Sequence of Protein cereblon/Histone lysine acetyltransferase CREBBP (Q56AP7 whole entry): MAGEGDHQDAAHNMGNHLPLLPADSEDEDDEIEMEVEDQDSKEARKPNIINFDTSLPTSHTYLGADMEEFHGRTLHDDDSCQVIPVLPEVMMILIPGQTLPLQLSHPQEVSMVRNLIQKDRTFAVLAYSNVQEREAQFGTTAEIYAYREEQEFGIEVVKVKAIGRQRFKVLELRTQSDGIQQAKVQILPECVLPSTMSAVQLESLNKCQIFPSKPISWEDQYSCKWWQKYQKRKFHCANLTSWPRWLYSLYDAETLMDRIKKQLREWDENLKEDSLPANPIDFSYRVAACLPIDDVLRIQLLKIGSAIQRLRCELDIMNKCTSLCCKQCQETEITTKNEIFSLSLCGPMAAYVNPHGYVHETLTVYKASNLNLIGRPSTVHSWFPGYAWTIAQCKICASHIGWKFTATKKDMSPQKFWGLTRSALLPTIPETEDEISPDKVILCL
Sequence of Protein cereblon/Histone lysine acetyltransferase CREBBP (Q6JHU9 whole entry): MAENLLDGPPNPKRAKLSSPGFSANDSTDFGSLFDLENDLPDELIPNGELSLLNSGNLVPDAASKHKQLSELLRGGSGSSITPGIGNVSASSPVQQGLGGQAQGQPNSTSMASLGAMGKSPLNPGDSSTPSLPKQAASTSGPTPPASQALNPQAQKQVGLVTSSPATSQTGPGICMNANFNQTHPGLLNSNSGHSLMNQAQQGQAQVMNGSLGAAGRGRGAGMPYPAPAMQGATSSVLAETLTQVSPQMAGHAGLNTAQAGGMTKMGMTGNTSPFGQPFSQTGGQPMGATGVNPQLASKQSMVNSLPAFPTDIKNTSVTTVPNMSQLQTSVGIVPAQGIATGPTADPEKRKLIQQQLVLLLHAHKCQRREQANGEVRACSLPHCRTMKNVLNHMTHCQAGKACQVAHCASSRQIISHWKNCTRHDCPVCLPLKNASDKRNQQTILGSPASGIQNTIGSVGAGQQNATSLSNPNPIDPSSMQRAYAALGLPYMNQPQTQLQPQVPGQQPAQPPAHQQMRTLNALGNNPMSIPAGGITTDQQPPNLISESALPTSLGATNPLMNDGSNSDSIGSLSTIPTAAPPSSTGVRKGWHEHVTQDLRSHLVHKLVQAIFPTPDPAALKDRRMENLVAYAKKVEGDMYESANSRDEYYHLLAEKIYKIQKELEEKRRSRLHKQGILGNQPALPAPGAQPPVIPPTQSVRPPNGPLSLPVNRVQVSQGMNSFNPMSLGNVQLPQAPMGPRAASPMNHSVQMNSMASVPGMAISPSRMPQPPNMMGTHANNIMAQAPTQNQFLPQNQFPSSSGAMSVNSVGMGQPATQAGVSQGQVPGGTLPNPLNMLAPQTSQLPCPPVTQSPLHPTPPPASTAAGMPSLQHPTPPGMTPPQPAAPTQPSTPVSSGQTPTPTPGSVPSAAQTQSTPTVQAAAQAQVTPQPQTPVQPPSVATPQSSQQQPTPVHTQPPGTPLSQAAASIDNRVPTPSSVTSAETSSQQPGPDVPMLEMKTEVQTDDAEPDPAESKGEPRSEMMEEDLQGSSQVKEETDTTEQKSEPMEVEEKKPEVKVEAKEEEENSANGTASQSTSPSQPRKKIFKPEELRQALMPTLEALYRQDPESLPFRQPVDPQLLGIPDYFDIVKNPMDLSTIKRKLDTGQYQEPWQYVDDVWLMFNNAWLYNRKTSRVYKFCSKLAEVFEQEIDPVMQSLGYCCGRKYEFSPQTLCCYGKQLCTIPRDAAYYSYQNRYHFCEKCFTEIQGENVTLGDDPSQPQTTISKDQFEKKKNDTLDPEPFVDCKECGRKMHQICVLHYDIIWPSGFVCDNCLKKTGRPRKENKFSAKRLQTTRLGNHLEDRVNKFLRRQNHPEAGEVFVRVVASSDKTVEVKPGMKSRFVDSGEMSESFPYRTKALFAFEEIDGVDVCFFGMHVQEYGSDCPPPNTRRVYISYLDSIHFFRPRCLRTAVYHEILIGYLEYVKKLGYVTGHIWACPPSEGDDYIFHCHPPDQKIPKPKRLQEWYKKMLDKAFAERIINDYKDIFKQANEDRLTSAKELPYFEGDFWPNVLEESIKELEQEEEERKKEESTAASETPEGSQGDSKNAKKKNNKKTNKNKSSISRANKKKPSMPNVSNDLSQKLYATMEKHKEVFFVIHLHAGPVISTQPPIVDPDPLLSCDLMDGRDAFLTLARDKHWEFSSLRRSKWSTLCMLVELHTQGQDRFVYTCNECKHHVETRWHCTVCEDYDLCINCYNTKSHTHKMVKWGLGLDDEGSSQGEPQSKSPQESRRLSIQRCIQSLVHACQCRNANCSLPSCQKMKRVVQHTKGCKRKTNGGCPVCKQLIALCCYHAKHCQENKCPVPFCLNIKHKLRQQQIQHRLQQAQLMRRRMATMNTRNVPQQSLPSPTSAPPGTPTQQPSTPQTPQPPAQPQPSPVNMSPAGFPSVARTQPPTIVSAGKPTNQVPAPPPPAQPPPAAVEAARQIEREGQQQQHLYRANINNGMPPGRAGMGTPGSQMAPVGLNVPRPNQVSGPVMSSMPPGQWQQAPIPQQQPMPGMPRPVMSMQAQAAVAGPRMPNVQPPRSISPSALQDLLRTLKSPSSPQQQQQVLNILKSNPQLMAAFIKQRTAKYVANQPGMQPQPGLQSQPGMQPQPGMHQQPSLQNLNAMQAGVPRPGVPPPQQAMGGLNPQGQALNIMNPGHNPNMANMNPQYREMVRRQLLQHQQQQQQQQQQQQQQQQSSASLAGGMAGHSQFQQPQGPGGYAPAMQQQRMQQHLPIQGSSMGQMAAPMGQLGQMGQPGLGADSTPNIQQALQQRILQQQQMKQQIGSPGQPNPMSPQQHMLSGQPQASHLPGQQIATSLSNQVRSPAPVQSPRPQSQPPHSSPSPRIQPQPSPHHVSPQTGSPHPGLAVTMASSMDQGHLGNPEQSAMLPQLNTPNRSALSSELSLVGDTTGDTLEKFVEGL

[7] = Drug distribution in Sprague-Dawley rat spleen at 3 mg/kg, po measured at 6 hrs by LC-MS/MS analysis; type: ADME, organism-based; conditions: read-out: Ct
[8] = Plasma protein binding in mouse by LC-MS analysis; type: ADME, cell-free; conditions: read-out: PPB (converted)
[9] = Toxicity in immune-competent Sprague-Dawley rat assessed as change in alanine aminotransferase level at 1 to 10 mg/kg, po administered twice a week for 5 weeks; type: organism-based; conditions: in vivo, 840 h, dose 1-10 mg/kg
[10] = Metabolic stability in human plasma assessed as half life measured upto 120 mins by LC-MS/MS analysis; type: ADME, cell-free
[11] = Metabolic stability in mouse plasma assessed as half life measured upto 120 mins by LC-MS/MS analysis; type: ADME, cell-free
[12] = Drug distribution in SCID mouse plasma at 0.3 mg/kg, po measured at 1 hr by LC-MS/MS analysis; type: ADME, organism-based
[13] = Volume of distribution at steady state in Sprague-Dawley rat at 1 mg/kg, iv measured upto 24 hrs by LC/MS-MS analysis; type: ADME, organism-based; conditions: in vivo, read-out: Vdss
[14] = tested on: LNCaP; experiment: Antiproliferative activity against human LNCaP cells assessed as cell growth inhibition incubated for 4 days by celtiter-glo luminescent assay; conditions: 96 h
[15] = Drug distribution in Sprague-Dawley rat plasma at 3 mg/kg, po measured at 6 hrs by LC-MS/MS analysis; type: ADME, organism-based
[16] = Toxicity in immune-competent Sprague-Dawley rat at 1 to 10 mg/kg, po administered twice a week for 5 weeks; type: organism-based; conditions: in vivo, 840 h, dose 1-10 mg/kg
[17] = Drug distribution in Sprague-Dawley rat plasma at 3 mg/kg, po measured at 1 hr by LC-MS/MS analysis; type: ADME, organism-based
[18] = Drug distribution in Sprague-Dawley rat spleen at 3 mg/kg, po measured at 24 hrs by LC-MS/MS analysis; type: ADME, organism-based; conditions: read-out: Ct
[19] = Drug distribution in SCID mouse plasma at 1 mg/kg, po measured at 1 hr by LC-MS/MS analysis; type: ADME, organism-based
[20] = Toxicity in immune-competent Sprague-Dawley rat assessed as change in creatinine level at 1 to 10 mg/kg, po administered twice a week for 5 weeks; type: organism-based; conditions: in vivo, 840 h, dose 1-10 mg/kg
[21] = Toxicity in SCID mouse xenografted with human VCaP cells assessed as loss of body weight at 1 to 3 mg/kg, po administered daily 5 times a week for 4 weeks; type: organism-based; conditions: in vivo, 672 h, dose 1-3 mg/kg
[22] = Drug distribution in SCID mouse plasma at 1 mg/kg, po measured at 6 hrs by LC-MS/MS analysis; type: ADME, organism-based
[23] = Toxicity in immune-competent Sprague-Dawley rat assessed as change in monocyte at 1 to 10 mg/kg, po administered twice a week for 5 weeks; type: organism-based; conditions: in vivo, 840 h, dose 1-10 mg/kg
[24] = Toxicity in immune-competent Sprague-Dawley rat assessed as change in alkaline phosphatase level at 1 to 10 mg/kg, po administered twice a week for 5 weeks; type: organism-based; conditions: in vivo, 840 h, dose 1-10 mg/kg
[25] = Drug distribution in SCID mouse tumor at 0.3 mg/kg, po measured at 1 hr by LC-MS/MS analysis; type: ADME, organism-based, Neoplasm; conditions: read-out: Ct
[26] = Toxicity in SCID mouse xenografted with human VCaP cells assessed as loss of body weight at 1 to 3 mg/kg, po measured up to 48 days; type: organism-based; conditions: in vivo, 1152 h, dose 1-3 mg/kg, time < 48 day
[27] = tested on: VCaP; experiment: Antitumor activity against human VCaP cells xenografted in SCID mouse assessed as tumor growth inhibition at 0.3 mg/kg, po administered daily 5 times a week for 4 weeks; type: functional; conditions: 672 h, read-out: TGI
[28] = biological target: Voltage-gated inwardly rectifying potassium channel KCNH2 (Homo sapiens, UniProt Q12809); experiment: Inhibition of hERG expressed in HEK293 cells; type: toxicity, cell-based
Sequence of Voltage-gated inwardly rectifying potassium channel KCNH2 (Q12809 whole entry): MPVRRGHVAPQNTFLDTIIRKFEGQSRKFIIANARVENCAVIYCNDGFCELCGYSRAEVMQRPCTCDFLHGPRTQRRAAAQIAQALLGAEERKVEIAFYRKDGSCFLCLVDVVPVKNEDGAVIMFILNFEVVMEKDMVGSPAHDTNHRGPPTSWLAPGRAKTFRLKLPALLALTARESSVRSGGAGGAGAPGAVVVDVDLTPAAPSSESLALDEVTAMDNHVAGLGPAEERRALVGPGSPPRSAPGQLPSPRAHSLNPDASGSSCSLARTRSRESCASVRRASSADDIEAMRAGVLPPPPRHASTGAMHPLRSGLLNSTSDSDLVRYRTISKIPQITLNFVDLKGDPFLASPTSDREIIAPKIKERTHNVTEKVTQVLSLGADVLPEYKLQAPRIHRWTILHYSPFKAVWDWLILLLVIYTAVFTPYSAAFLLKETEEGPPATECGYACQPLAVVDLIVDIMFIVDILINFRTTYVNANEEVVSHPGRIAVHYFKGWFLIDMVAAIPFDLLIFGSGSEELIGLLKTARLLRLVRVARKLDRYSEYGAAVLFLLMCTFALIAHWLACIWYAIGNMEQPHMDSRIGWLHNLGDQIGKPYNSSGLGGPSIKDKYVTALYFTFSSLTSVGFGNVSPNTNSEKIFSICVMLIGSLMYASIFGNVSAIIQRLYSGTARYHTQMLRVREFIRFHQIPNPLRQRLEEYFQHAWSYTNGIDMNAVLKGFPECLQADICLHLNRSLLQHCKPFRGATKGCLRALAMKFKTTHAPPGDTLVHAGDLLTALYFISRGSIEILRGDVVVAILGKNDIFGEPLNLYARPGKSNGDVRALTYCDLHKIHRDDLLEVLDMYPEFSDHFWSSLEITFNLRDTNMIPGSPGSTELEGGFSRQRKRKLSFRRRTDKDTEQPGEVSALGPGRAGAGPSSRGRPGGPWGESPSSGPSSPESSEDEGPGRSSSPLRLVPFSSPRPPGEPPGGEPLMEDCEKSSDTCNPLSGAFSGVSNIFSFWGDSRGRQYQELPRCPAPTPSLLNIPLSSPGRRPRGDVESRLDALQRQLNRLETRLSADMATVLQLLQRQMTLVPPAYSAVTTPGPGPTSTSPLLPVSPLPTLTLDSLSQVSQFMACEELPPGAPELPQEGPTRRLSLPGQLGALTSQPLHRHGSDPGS

[29] = tested on: CWR22R; experiment: Antitumor activity against human 22Rv1 cells xenografted in SCID mouse assessed as tumor growth inhibition at 1 mg/kg, po administered 5 times a week for 3 weeks; type: functional; conditions: 22Rv1, 504 h, read-out: TGI
[30] = Drug distribution in Sprague-Dawley rat liver at 10 mg/kg, po measured at 1 hr by LC-MS/MS analysis; type: ADME, organism-based; conditions: read-out: Ct
[31] = Drug distribution in Sprague-Dawley rat heart at 3 mg/kg, po measured at 6 hrs by LC-MS/MS analysis; type: ADME, organism-based; conditions: read-out: Ct
[32] = Drug distribution in Sprague-Dawley rat liver at 10 mg/kg, po measured at 24 hrs by LC-MS/MS analysis; type: ADME, organism-based; conditions: read-out: Ct
[33] = Volume of distribution at steady state in ICR mouse at 1 mg/kg, iv measured upto 24 hrs by LC/MS-MS analysis; type: ADME, organism-based; conditions: in vivo
[34] = Drug distribution in Sprague-Dawley rat liver at 3 mg/kg, po measured at 6 hrs by LC-MS/MS analysis; type: ADME, organism-based; conditions: read-out: Ct
[35] = Plasma protein binding in dog by LC-MS analysis; type: ADME, cell-free, Canis lupus familiaris; conditions: read-out: PPB (converted)

Sequence of Cytochrome P450 2C19 (P33261 whole entry): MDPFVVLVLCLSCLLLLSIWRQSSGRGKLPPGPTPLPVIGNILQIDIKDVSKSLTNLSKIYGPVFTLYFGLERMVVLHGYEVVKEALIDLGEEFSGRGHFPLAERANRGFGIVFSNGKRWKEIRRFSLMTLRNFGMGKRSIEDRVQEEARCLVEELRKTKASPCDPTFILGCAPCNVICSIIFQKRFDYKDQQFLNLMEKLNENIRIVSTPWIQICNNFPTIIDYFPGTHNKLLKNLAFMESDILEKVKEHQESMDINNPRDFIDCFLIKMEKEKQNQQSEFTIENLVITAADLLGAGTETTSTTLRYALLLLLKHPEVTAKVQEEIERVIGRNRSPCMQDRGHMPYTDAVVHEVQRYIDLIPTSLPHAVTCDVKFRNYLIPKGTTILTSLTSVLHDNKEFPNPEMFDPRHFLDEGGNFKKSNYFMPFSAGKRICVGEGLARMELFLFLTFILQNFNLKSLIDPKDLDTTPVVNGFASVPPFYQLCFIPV

For `CC(=O)N1CCc2c(c(N3CCCc4cc(-c5cnn(C)c5)c(C(F)F)cc43)nn2[C@H]2CC[C@H](CN3Cc4cc5c(cc4C3)C(=O)N(C3CCC(=O)NC3=O)C5=O)CC2)C1` (stereo not given in full), the IC50 [1] was > 10000 nM, the IC50 [2] was > 10000 nM and the concentration at 6 h [3] was 763 ng/mL. For the same molecule, the concentration at 24 h [4] was 61.1 ng/mL, the half-life [5] was 0.8 h and the DC50 [6] was 0.1 nM. The concentration at 6 h [7] was 112 ng/g, the fraction unbound [8] was 0.016 and the Activity [9] was “Non-Toxic”. For the same molecule, the half-life [10] was 1.18 h, the half-life [11] was > 2 h and the concentration at 1 h [12] was 35.2 ng/mL. It also gave a Vd [13] of 4.9 L/kg, an IC50 [14] of 10.3 nM and a concentration at 6 h [15] of 13.1 ng/mL. For the same molecule, the Activity [16] was “Non-Toxic”, the concentration at 1 h [17] was 109 ng/mL and the concentration at 24 h [18] was 8.1 ng/g. The concentration at 1 h [19] was 212 ng/mL, the Activity [20] was “Non-Toxic” and the Activity [21] was > 8%. For the same molecule, the concentration at 6 h [22] was 43.2 ng/mL, the Activity [23] was “Non-Toxic” and the Activity [24] was “Non-Toxic”. For the same molecule, the concentration at 1 h [25] was 27.8 ng/g, the Activity [26] was < 7% and the inhibition in vivo at 0.3 mg/kg [27] was 84%. The IC50 [28] was > 30000 nM, the inhibition in vivo at 1 mg/kg [29] was 75% and the concentration at 1 h [30] was 4100 ng/g. It also gave a concentration at 6 h [31] of 26.4 ng/g, a concentration at 24 h [32] of 20.2 ng/g and a Vdss [33] of 4.9 L/kg. The concentration at 6 h [34] was 148 ng/g and the fraction unbound [35] was 0.009.

Source: ChEMBL document CHEMBL5543112, “Discovery of CBPD-268 as an Exceptionally Potent and Orally Efficacious CBP/p300 PROTAC Degrader Capable of Achieving Tumor Regression” (J Med Chem, 2024)
